Measurements published in patent publication US20240287138A1, “CYCLIC PEPTIDES FOR INHIBITING TNF RECEPTOR 1 ACTIVITY” (Merck Sharp & Dohme LLC, priority 2023, published 2024).
pIC50, pKd: −log10 of the molar value. Numbered stars: 1 amine (or outer) side, 2 acyl side, 3 side chain; on linkers, the order of the positions; unused ones are H or OH. Bridge positions count the residues as written; N and C are the ends. Square brackets hold non-standard residues; d marks the D form. Peptide text beside a SMILES is read from it. * marks the point of attachment. Trp(βS-Me,7-OMe) = COc1cccc2c([C@H](C)[C@H](N)C(=O)O)c[nH]c12; Trp(1-CH2COOH) = N[C@@H](Cc1cn(CC(=O)O)c2ccccc12)C(=O)O; X44 = NC(=O)c1ccc([C@@H](O)[C@H](N[*:1])C(=O)[*:2])cc1; X28 = NC(=O)c1ccc([C@H](O)[C@H](N[*:1])C(=O)[*:2])cc1; Phe(4-SO2NH2) = N[C@@H](Cc1ccc(S(N)(=O)=O)cc1)C(=O)O; Phe(2-F,4-COOH) = N[C@@H](Cc1ccc(C(=O)O)cc1F)C(=O)O; Trp(7-CN) = N#Cc1cccc2c(C[C@H](N)C(=O)O)c[nH]c12; Trp(7-Cl) = N[C@@H](Cc1c[nH]c2c(Cl)cccc12)C(=O)O; Ala(pyrimidin-5-yl) = N[C@@H](Cc1cncnc1)C(=O)O; Phe(3-COOH) = N[C@@H](Cc1cccc(C(=O)O)c1)C(=O)O; Phe(4-CONH2) = NC(=O)c1ccc(C[C@H](N)C(=O)O)cc1; Phe(4-COOH) = N[C@@H](Cc1ccc(C(=O)O)cc1)C(=O)O; X64 = O=C([C@H](Cc1n[nH]c2ncccc12)N[*:1])[*:2]; Trp(7-aza) = N[C@@H](Cc1c[nH]c2ncccc12)C(=O)O; Pip(5R-OH) = O=C(O)[C@@H]1CC[C@@H](O)CN1; X1 = O=C([C@@H]1CC[C@H](N[*:1])C1)[*:2]; Pip(4-aza) = O=C(O)[C@@H]1CNCCN1; 4Pal = N[C@@H](Cc1ccncc1)C(=O)O; NMeE = CN[C@@H](CCC(=O)O)C(=O)O; dHyp = O=C(O)[C@H]1C[C@H](O)CN1; αMeS = C[C@](N)(CO)C(=O)O; Carboxymethyl = O=C(O)C*; Nle = CCCC[C@H](N)C(=O)O; Sar = CNCC(=O)O

Experiments:
[1] = biological target: T1, TNFα-induced NF-κB signal transduction pathway (TNFR1 signaling) in THP-1 cells (Homo sapiens, UniProt P19438); assay: THP-1 Lucia NF-κB reporter cell assay, inhibition of TNFα-induced NF-κB signaling; format: cell-based; details: THP-1 NF-κB Lucia reporter cells, 10 ng/mL TNFα, 16-18 h, secreted luciferase; read-out: THP-1 IC50
T1 sequence (P19438 30-455): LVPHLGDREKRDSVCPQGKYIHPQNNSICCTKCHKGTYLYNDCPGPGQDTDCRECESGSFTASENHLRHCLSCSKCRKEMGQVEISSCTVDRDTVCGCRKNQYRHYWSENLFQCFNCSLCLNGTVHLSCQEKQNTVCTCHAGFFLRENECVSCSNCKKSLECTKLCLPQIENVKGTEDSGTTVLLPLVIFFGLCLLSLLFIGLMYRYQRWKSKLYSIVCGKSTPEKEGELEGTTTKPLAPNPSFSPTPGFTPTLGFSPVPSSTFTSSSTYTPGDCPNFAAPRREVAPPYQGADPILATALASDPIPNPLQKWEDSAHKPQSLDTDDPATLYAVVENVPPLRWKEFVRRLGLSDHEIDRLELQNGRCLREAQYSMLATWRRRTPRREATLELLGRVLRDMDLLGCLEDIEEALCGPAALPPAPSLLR
In short: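 IC50 from a 4-parameter logistic fit of secreted luciferase luminescence (QUANTI-Luc), normalised to min/max controls. Reporter THP-1 cells were exposed to peptides for 1 h at 37 °C before 10 ng/mL TNFα (final) was added overnight (16–18 h).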

[2] = biological target: T2, human soluble TNFR1 (sTNFR1) (Homo sapiens, UniProt P19438); assay: Human sTNFR1-peptide displacement assay (LanthaScreen Eu TR-FRET binding assay)
T2 construct: made in house; host or cells: Sf21 (baculovirus)
T2 sequence (P19438 with tags, fused parts or gaps): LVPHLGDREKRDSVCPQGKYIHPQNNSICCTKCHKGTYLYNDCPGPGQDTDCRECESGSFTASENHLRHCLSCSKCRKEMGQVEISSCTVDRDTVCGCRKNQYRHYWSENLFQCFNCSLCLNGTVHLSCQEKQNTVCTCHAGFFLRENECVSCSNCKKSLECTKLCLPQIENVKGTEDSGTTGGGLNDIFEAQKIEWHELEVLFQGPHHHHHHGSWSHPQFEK
In short: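 Readout is the 665/615 nm TR-FRET ratio (Eu anti-His donor, streptavidin-Alexa647 acceptor), normalized to DMSO and saturating displacer, fit by Morrison-based five-parameter logistic for Kd^app. His-tagged sTNFR1 (1-211) prebound to 100 nM biotinylated peptide SEQ ID NO.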

| SMILES | pIC50 [1] | pKd [2] | pIC50 [2] |
| --- | --- | --- | --- |
| CCCC[C@@H]1NC(=O)[C@@H]2CC[C@@H](C2)NC(=O)[C@H]([C@@H](C)c2c[nH]c3c(OC)cccc23)NC(=O)CN(C)C(=O)[C@H](Cc2ccc(C(=O)O)cc2F)NC(=O)[C@H](Cc2ccc(C(=O)O)cc2)NC(=O)[C@](C)(CO)NC(=O)[C@H](Cc2c[nH]c3c(Cl)cccc23)NC(=O)[C@H](Cc2ccncc2)NC(=O)[C@H](CC(N)=O)NC(=O)[C@H](CCC(=O)O)N(C)C(=O)[C@H](Cc2c[nH]c3ccccc23)NC(=O)[C@@H]2CNCCN2C(=O)[C@H](Cc2ccncc2)NC1=O [SEQ ID NO. 107] (cyclo([4Pal][Trp(7-Cl)][αMeS][Phe(4-COOH)][Phe(2-F,4-COOH)][Sar][Trp(βS-Me,7-OMe)][X1][Nle][4Pal][Pip(4-aza)]W[NMeE]N)) | 9.00 | 9.52 |  |
| CCCC[C@@H]1NC(=O)[C@@H]2CC[C@@H](C2)NC(=O)[C@H]([C@@H](C)c2c[nH]c3c(OC)cccc23)NC(=O)CN(C)C(=O)[C@H](Cc2ccc(OCC(=O)O)cc2)NC(=O)[C@H](Cc2ccc(S(N)(=O)=O)cc2)NC(=O)[C@](C)(CO)NC(=O)[C@H](Cc2c[nH]c3c(C#N)cccc23)NC(=O)[C@H](Cc2ccc(OCC(=O)O)cc2)NC(=O)[C@H](CC(N)=O)NC(=O)[C@H]2C[C@H](OCC(=O)O)CN2C(=O)[C@H](Cc2n[nH]c3ncccc23)NC(=O)[C@@H]2CC[C@@H](O)CN2C(=O)[C@H](Cc2cncnc2)NC1=O [SEQ ID NO. 89] (cyclo([X1][Nle][Ala(pyrimidin-5-yl)][Pip(5R-OH)][X64][dHyp](Carboxymethyl)NY(Carboxymethyl)[Trp(7-CN)][αMeS][Phe(4-SO2NH2)]Y(Carboxymethyl)[Sar][Trp(βS-Me,7-OMe)])) | 8.92 | 9.74 |  |
| CCCC[C@@H]1NC(=O)[C@@H]2CC[C@@H](C2)NC(=O)[C@H]([C@@H](C)c2c[nH]c3c(OC)cccc23)NC(=O)CN(C)C(=O)[C@H](Cc2ccc(O)cc2)NC(=O)[C@H](Cc2ccc(C(=O)O)cc2)NC(=O)[C@](C)(CO)NC(=O)[C@H](Cc2c[nH]c3c(Cl)cccc23)NC(=O)[C@H](Cc2ccncc2)NC(=O)[C@H](CC(N)=O)NC(=O)[C@H](CCC(=O)O)N(C)C(=O)[C@H](Cc2cn(CC(=O)O)c3ccccc23)NC(=O)[C@@H]2CNCCN2C(=O)[C@H](Cc2ccncc2)NC1=O [SEQ ID NO. 197] (cyclo([4Pal][Trp(7-Cl)][αMeS][Phe(4-COOH)]Y[Sar][Trp(βS-Me,7-OMe)][X1][Nle][4Pal][Pip(4-aza)][Trp(1-CH2COOH)][NMeE]N)) | 9.15 | 9.44 |  |
| CCCC[C@@H]1NC(=O)[C@@H]2CC[C@@H](C2)NC(=O)[C@H]([C@@H](C)c2c[nH]c3c(OC)cccc23)NC(=O)CN(C)C(=O)[C@H]([C@H](O)c2ccc(C(N)=O)cc2)NC(=O)[C@H]([C@@H](O)c2ccc(C(N)=O)cc2)NC(=O)[C@](C)(CO)NC(=O)[C@H](Cc2c[nH]c3c(C#N)cccc23)NC(=O)[C@H](Cc2ccc(C(=O)O)cc2)NC(=O)[C@H](CC(N)=O)NC(=O)[C@H]2C[C@H](O)CN2C(=O)[C@H](Cc2c[nH]c3ncccc23)NC(=O)[C@@H]2CC[C@@H](O)CN2C(=O)[C@H](Cc2ccncc2)NC1=O [SEQ ID NO. 90] (cyclo([4Pal][Pip(5R-OH)][Trp(7-aza)][dHyp]N[Phe(4-COOH)][Trp(7-CN)][αMeS][X28][X44][Sar][Trp(βS-Me,7-OMe)][X1][Nle])) | 8.92 | 9.92 |  |
| CCCC[C@@H]1NC(=O)CSC[C@@H](C(N)=O)NC(=O)[C@H]([C@@H](C)c2c[nH]c3c(OC)cccc23)NC(=O)CN(C)C(=O)[C@H](Cc2cccc(C(=O)O)c2)NC(=O)[C@H](Cc2ccc(C(N)=O)cc2)NC(=O)[C@](C)(CO)NC(=O)[C@H](Cc2c[nH]c3c(Cl)cccc23)NC(=O)[C@H](Cc2ccc(C(N)=O)cc2)NC(=O)[C@H](CC(N)=O)NC(=O)[C@H](CCC(=O)O)N(C)C(=O)[C@H](Cc2c[nH]c3ccccc23)NC(=O)[C@@H]2CNCCN2C(=O)[C@H](Cc2ccncc2)NC1=O [SEQ ID NO. 184] ({CH2CO}-[Nle][4Pal][Pip(4-aza)]W[NMeE]N[Phe(4-CONH2)][Trp(7-Cl)][αMeS][Phe(4-CONH2)][Phe(3-COOH)][Sar][Trp(βS-Me,7-OMe)]C-NH2; thioether N-14) | 8.77 |  | 9.30 |
